Experimental data published in ChEMBL document CHEMBL3885861, “Open TG-GATES”.

Species on record: Rattus norvegicus
Test: Open TG-GATES - Regimen: Daily Repeat
Format: toxicity, organism-based, Sprague-Dawley
Design: regimen Daily Repeat, gender Male, age 6 weeks
Conditions: in vivo, po, route gavage; for APTT / Bas / Eos / Fbg / Hb / Ht / Lym / MCH / MCHC / MCV / Mono / Neu / RBC / Ret / WBC / Plat: tissue Blood; for KIDNEY_L / KIDNEY_R / KIDNEY_TOTAL: tissue Kidney; for ALP / ALT / AST / BUN / CRE / Ca / Cl / DBIL / GLC / IP / K / LDH / Na / PL / RALB / TBIL / TC / TG / TP / gamma-GTP: tissue Plasma
[1] = 150 mg/kg, 72 h, dose level Middle, time 3 day
[2] = 150 mg/kg, […], dose level Middle, time 7 day
[3] = 150 mg/kg, […], dose level Middle, time 14 day
[4] = 150 mg/kg, […], dose level Middle, time 28 day
[5] = 450 mg/kg, 72 h, dose level High, time 3 day

## CC(=O)Oc1ccccc1C(=O)O [ASPIRIN]
[1]
  APTT: 19 s
  Bas: 0%
  Eos: 1%
  Fbg: 227.8 mg/dL
  Hb: 13.4 g/dL
  Ht: 39.3%
  Lym: 80.8%
  MCH: 21.4 pg
  MCHC: 34.1%
  MCV: 62.7 fL
  Mono: 2.8%
  Neu: 14.4%
  RBC: 627.2 x10_4/ul
  Ret: 5.9%
  WBC: 108.2 x10_2/uL
  KIDNEY_L: 1.1 g
  KIDNEY_R: 1.1 g
  KIDNEY_TOTAL: 2.1 g
  ALP: 924.6 IU/L
  ALT: 33.4 IU/L
  AST: 68.4 IU/L
  BUN: 12.2 mg/dL
  CRE: 0.4 mg/dL
  Ca: 10.6 mg/dL
  Cl: 102.4 meq/L
  DBIL: 0.078 mg/dL
  GLC: 196.6 mg/dL
  IP: 7 mg/dL
  K: 3.7 meq/L
  LDH: 210.2 IU/L
  Na: 141 meq/L
  PL: 155.8 mg/dL
  RALB: 3.4 g/dL
  TBIL: 0.1 mg/dL
  TC: 73.8 mg/dL
  TG: 117.6 mg/dL
  TP: 5.6 g/dL
  gamma-GTP: 1 IU/L
[2]
  TERMINAL_BW: 268.1 g
  APTT: 19.3 s
  Bas: 0%
  Eos: 1%
  Fbg: 216 mg/dL
  Hb: 14 g/dL
  Ht: 41.1%
  Lym: 82.4%
  MCH: 20.8 pg
  MCHC: 34%
  MCV: 61.3 fL
  Mono: 2.4%
  Neu: 13.2%
  Plat: 119 x10_4/uL
  RBC: 671 x10_4/ul
  Ret: 4.7%
  WBC: 119.6 x10_2/uL
  KIDNEY_L: 1.2 g
  KIDNEY_R: 1.2 g
  KIDNEY_TOTAL: 2.3 g
  ALP: 901.8 IU/L
  ALT: 35 IU/L
  AST: 66.8 IU/L
  BUN: 16 mg/dL
  CRE: 0.4 mg/dL
  Ca: 10.4 mg/dL
  Cl: 102.4 meq/L
  DBIL: 0.094 mg/dL
  GLC: 211.6 mg/dL
  IP: 8.5 mg/dL
  K: 4 meq/L
  LDH: 222.2 IU/L
  Na: 141 meq/L
  PL: 158.4 mg/dL
  RALB: 3.2 g/dL
  TBIL: 0.1 mg/dL
  TC: 71.8 mg/dL
  TG: 153.4 mg/dL
  TP: 5.4 g/dL
  gamma-GTP: 0.6 IU/L
[3]
  TERMINAL_BW: 320.9 g
  APTT: 19.5 s
  Bas: 0%
  Eos: 1.8%
  Fbg: 204.8 mg/dL
  Hb: 14.9 g/dL
  Ht: 42.1%
  Lym: 77.6%
  MCH: 21.1 pg
  MCHC: 35.3%
  MCV: 59.7 fL
  Mono: 2.8%
  Neu: 17.2%
  Plat: 125.3 x10_4/uL
  RBC: 704.8 x10_4/ul
  Ret: 3.5%
  WBC: 156.5 x10_2/uL
  KIDNEY_L: 1.3 g
  KIDNEY_R: 1.3 g
  KIDNEY_TOTAL: 2.6 g
  ALP: 825.8 IU/L
  ALT: 36.8 IU/L
  AST: 77 IU/L
  BUN: 14.6 mg/dL
  CRE: 0.4 mg/dL
  Ca: 10.4 mg/dL
  Cl: 102.2 meq/L
  DBIL: 0.092 mg/dL
  GLC: 187.4 mg/dL
  IP: 8 mg/dL
  K: 4.2 meq/L
  LDH: 252 IU/L
  Na: 141.6 meq/L
  PL: 158.6 mg/dL
  RALB: 3.3 g/dL
  TBIL: 0.1 mg/dL
  TC: 72.4 mg/dL
  TG: 151.4 mg/dL
  TP: 5.5 g/dL
  gamma-GTP: 0.8 IU/L
[4]
  TERMINAL_BW: 404.7 g
  APTT: 21.3 s
  Bas: 0%
  Eos: 1.4%
  Fbg: 205.4 mg/dL
  Hb: 15.4 g/dL
  Ht: 44.6%
  Lym: 80.2%
  MCH: 19.6 pg
  MCHC: 34.6%
  MCV: 56.7 fL
  Mono: 2.4%
  Neu: 14.6%
  Plat: 108.6 x10_4/uL
  RBC: 789.2 x10_4/ul
  Ret: 2.2%
  WBC: 108.6 x10_2/uL
  KIDNEY_L: 1.5 g
  KIDNEY_R: 1.5 g
  KIDNEY_TOTAL: 3 g
  ALP: 641.6 IU/L
  ALT: 35.8 IU/L
  AST: 81.4 IU/L
  BUN: 16.2 mg/dL
  CRE: 0.5 mg/dL
  Ca: 10.2 mg/dL
  Cl: 102.8 meq/L
  DBIL: 0.1 mg/dL
  GLC: 229.2 mg/dL
  IP: 7.3 mg/dL
  K: 3.8 meq/L
  LDH: 193 IU/L
  Na: 142.2 meq/L
  PL: 149.8 mg/dL
  RALB: 3.4 g/dL
  TBIL: 0.2 mg/dL
  TC: 69.4 mg/dL
  TG: 148.8 mg/dL
  TP: 5.8 g/dL
  gamma-GTP: 0.6 IU/L
[5]
  TERMINAL_BW: 232.1 g
  APTT: 24.9 s
  Bas: 0%
